In PubChem BioAssay AID1259342 (Broad Institute, 2017):
The source made the active and inactive calls.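 The calls were made as follows: active = fitted half-maximal inhibitory concentration AC50 at most ten times the top concentration tested; inconclusive = flat fit with 30 to 70% inhibition, or unusable fit; inactive = AC50 above ten times the top concentration.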

Biological target: E3 ubiquitin-protein ligase TRIM62 (Homo sapiens) (UniProt Q9BVG3)
Test: TRIM62 E3 ligase activity on CARD9 – biochemical, ubiquitin ELISA, AlphaLISA TUBE, CARD9-TRIM62 disruptor project, dose response (AID 1259342);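 as to AC50: potency is for inhibitors that reduce CARD9 ubiquitylation signal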
Conditions: TRIM62-mediated CARD9 ubiquitylation, AlphaLISA TUBE detection

Chain of E3 ubiquitin-protein ligase TRIM62 (Homo sapiens) (Q9BVG3 whole entry, looked up): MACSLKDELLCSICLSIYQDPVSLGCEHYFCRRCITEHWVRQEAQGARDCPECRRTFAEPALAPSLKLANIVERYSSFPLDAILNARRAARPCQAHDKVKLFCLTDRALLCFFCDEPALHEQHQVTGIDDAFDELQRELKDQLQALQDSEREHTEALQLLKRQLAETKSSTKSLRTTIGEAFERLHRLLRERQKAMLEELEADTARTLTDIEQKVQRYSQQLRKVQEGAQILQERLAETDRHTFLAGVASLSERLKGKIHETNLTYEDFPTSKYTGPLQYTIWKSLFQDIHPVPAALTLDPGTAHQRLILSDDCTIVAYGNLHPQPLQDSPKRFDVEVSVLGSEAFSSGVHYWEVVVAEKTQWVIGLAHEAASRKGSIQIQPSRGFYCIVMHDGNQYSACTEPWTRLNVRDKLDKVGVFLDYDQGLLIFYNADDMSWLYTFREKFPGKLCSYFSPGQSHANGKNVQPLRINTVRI

SMILES	AC50
COc1ccc(F)c(CN2C[C@H]3CC[C@@H]2CN(Cc2cscn2)C3)c1	> 160 µM (inactive)
COc1cc(N)c(Cc2nccc3cc(OC)c(OC)cc23)cc1OC	79.5 µM
COCCn1c(C)cc(-c2csc(N)n2)c1C	68.3 µM
O=c1oc(/C=C/c2ccc([N+](=O)[O-])s2)nc2ccccc12	> 160 µM (inactive)
O=C(COC(=O)c1cc(-c2cccs2)nc2ccccc12)NCc1ccco1	26.2 µM
Cc1ccc(Cc2cnc(N)s2)o1	> 160 µM (inactive)
Cc1cccc(Nc2nc(C(=O)Nc3cc(F)ccc3F)nc3ccccc23)c1	24.3 µM
O=[N+]([O-])c1ccc2nn(Cc3ccccc3)cc2c1	> 160 µM (inactive)
O=C(COC(=O)c1ccc(S(=O)(=O)NCc2ccco2)cc1)Nc1ccc(Cl)cn1	26.9 µM
O=C(O)CCc1ccc(-c2cccs2)n1NC(=O)c1ccco1	63.5 µM
O=C(Nc1nc(-c2ccco2)c(-c2ccco2)s1)c1ccc(F)cc1F	> 160 µM (inactive)
O=C(NC1CC1)c1cc(-c2ccco2)nc2ccccc12	21.2 µM
Cc1sc2ncnc(SCc3ccco3)c2c1C	56.6 µM
COc1cccc(NC(=O)CN(C)C(=O)c2cc3c(s2)CCC3)c1	8.47 µM
CC(=O)c1sc2nc(-c3ccco3)ccc2c1N	24.5 µM
Cc1ccc(-c2cc(C(=O)Nc3ccccn3)c3ccccc3n2)o1	60.9 µM
O=C(Nc1nc(-c2ccco2)c(-c2ccco2)s1)C1CCC1	6.56 µM
CCCN1CCc2nc(SCc3nc(-c4ccc(OC)cc4OC)oc3C)[nH]c(=O)c2C1	> 160 µM (inactive)
CC1=CCC(C(=O)O)C(C(=O)NC2CCCCC2)C1 (stereo not drawn)	47.4 µM
Cc1c(C(=O)OCC2CCCO2)[nH]c2c1C(=O)CC(c1ccco1)C2 (stereo not drawn)	38.1 µM
COc1ccc(S(=O)(=O)N2CCOCC2)cc1NC(=O)c1cccc(-n2cccc2)c1	3.62 µM
COc1ccc(NC(=O)CN(C)C(=O)c2cc(-c3ccco3)nc3ccccc23)cc1	16.6 µM
O=C(Cn1c(=O)cc(C(=O)N2CCc3ccccc3C2)c2ccccc21)NCc1ccc2c(c1)OCO2	11.8 µM
Cc1nn2c(c1-c1ccccc1)NC(c1ccco1)=CC2c1ccco1 (stereo not drawn)	13 µM

Same assay, conditions: TRIM62-mediated CARD9 ubiquitylation, AlphaLISA TUBE detection; at 38 µM (top of the series)

SMILES	activity change, negative = inhibition
CCCCCn1c(NC(=O)c2ccco2)c(C(=O)OCC)c2nc3ccccc3nc21	inactive
O=C(COC(=O)c1ccccc1Oc1ccccc1)NCc1ccco1	inactive
O=C(Nc1nc(-c2nc3ccccc3s2)cs1)c1ccco1	inactive
CC(=O)c1ccc(NC(=O)c2noc3c2CCC3)cc1	inactive

Same assay, conditions: TRIM62-mediated CARD9 ubiquitylation, AlphaLISA TUBE detection; at 80 µM (top of the series)

SMILES	activity change, negative = inhibition
CCOc1ccccc1NC(=O)N1CCCC(c2nccn2CCOC)C1 (stereo not drawn)	inactive
Cc1ccc2c(c1)C(N1CCCC1=O)CC(c1ccco1)N2 (stereo not drawn)	inactive
O=C(O)C(c1ccccc1)C(c1ccccc1)c1ccccc1 (stereo not drawn)	inactive
CCc1oc2ccccc2c1C(=O)CCN1CCCCC1	inactive
O=C(CCn1cncn1)N1CCC(n2cc(-c3ccccn3)nn2)CC1	inactive
CC(C(=O)N1CCCC1)N1CCN(c2ccccc2O)CC1 (stereo not drawn)	inactive
CCN1CCOC(=O)C1CC(=O)Nc1cccc(C)c1 (stereo not drawn)	inactive
O=C(Nc1nnc(-c2ccco2)s1)c1ccccc1	inactive
Cc1cc(C(=O)NCc2ccco2)on1	inactive
CCOC(=O)c1ccc(-c2ccc(C3CC(=O)Nc4cc5c(cc43)OCCO5)o2)cc1 (stereo not drawn)	inactive
CCOc1ccc(CNc2nc(-c3nnc(-c4ccc(F)cc4)o3)nc3ccccc23)cc1	inactive
COc1ccc(-c2nnc(-c3nc(Nc4ccc(NC(C)=O)cc4)c4ccccc4n3)o2)cc1	inactive
O=[N+]([O-])c1ccc2cc[nH]c2c1	inactive
O=C(Nc1ccc2oc(-c3ccncc3)nc2c1)c1ccc2c(c1)OCO2	inactive
CCCOc1ccc(CCC(=O)O)cc1	inactive
CCc1nccn1CCC(=O)N1C[C@H](CO)C[C@H](CN2CCCC2)C1	inactive
O=C(NC1(C(F)(F)F)Oc2ccc(Cl)cc2O1)N1CCC2(CC1)OCCO2 (stereo not drawn)	inactive
O=C(O)COCC(=O)NCc1ccco1	inactive
NC(=O)c1ccc(CN2C(=O)C3(CCNCC3)Nc3ccccc32)cc1	inactive
O=C1CC2(CCN(C(=O)Nc3ccccc3)CC2)CN1Cc1ccc(Cl)cc1	inactive
N#Cc1c(-c2ccco2)cc(-c2ccccn2)nc1N	inactive
Cc1cnc(C)c(N2CCN(C(=O)[C@H]3CC[C@@H](N)C3)CC2)n1	inactive
Cc1c(/C=C/c2nc3ccccc3c(=O)n2-c2ccccn2)c2ccccc2n1C	inactive
CN1C(=O)C(c2ccccc2[N+](=O)[O-])C(=O)c2ccccc21 (stereo not drawn)	inactive
CN(Cc1ccco1)S(=O)(=O)c1nnc(NC(=O)c2ccccc2)s1	inactive
O=C1CC(c2ccco2)Cc2nc(N3CCc4ccccc4C3)ncc21 (stereo not drawn)	inactive
CCCc1oc(C(=O)O)cc1CN	inactive
C=CCNc1ncnc2c1CCN(C(=O)c1ccc(CSC)o1)CC2	inactive
O=C(CN1CCOC1=O)N1CCC2(CCC(=O)N(CCCn3ccnc3)C2)CC1	inactive
Cc1cc(C(=O)Nc2nc3c(s2)CCc2ccccc2-3)no1	inactive
